Measured values published in patent US6872745B2, “Antipicornaviral compounds and compositions, their pharmaceutical uses, and materials for their synthesis” (Agouron Pharmaceuticals, Inc., priority 2000, dated 2005).

What was measured:
[1] = target: T1, rhinovirus 3C protease, serotype 14 (Human rhinovirus 14, UniProt P03303); test: Inhibition of rhinovirus 3C protease (FRET assay, enzyme start); format: biochemical; conditions: HRV-14 3C protease, progress curves, read-out: Kobs/I
T1 construct: Recombinant rhinovirus 3C proteases; made in house
Protocol: Stock solutions (50 mM, in DMSO) of various compounds were prepared; dilutions were in the same solvent. Recombinant rhinovirus 3C proteases (see Birch et al., “Purification of recombinant human rhinovirus 14 3C protease expressed in Escherichia coli,” Protein Expr. Pur. (1995), vol. 6(5), 609-618) from serotypes 14, 16, and 2 were prepared by the following standard chromatographic procedures: (1) ion exchange using Q Sepharose Fast Flow from Pharmacia; (2) affinity chromatography using Affi-Gel Blue from Biorad; and (3) sizing using Sephadex G-100 from Pharmacia. Each assay sample contained 2% DMSO, 50 mM tris pH 7.6, 1 mM EDTA, a test compound at the indicated concentration, approximately 1 μM substrate, and 50-100 nM protease. The kobs/I values were obtained from reactions initiated by addition of enzyme rather than substrate. RVP activity was measured in the fluorescence resonance energy transfer assay. The substrate was (N-terminal) DABCYL-(Gly-Arg-Ala-Val-Phe-Gln-Gly-Pro-Val-Gly)-EDANS. In the uncleaved peptide, the EDANS fluorescence was quenched by the proximal DABCYL moiety. When the peptide was cleaved, the quenching was relieved, and activity was measured as an increase in fluorescence signal. The tabulated data in the column designated kobs/[I] were measured from progress curves in enzyme start experiments.

HRV-14 = test: Antirhinoviral H1-HeLa cell culture assay (XTT cell protection); format: cell-based, human rhinovirus; conditions: Rhinovirus B, HRV14, H1-HeLa, HRV-14, H1-HeLa cells
Protocol: (§1) In this cell protection assay, the ability of compounds to protect cells against HRV infection was measured by the XTT dye reduction method, which is described in Weislow et al., J. Natl. Cancer Inst. (1989), vol. 81, 577-586. H1-HeLa cells were infected with HRV-14 at a multiplicity of infection (m.o.i.) of 0.13 (virus particles/cell) or mock-infected with medium only. Infected or mock-infected cells were resuspended at 8×10^5 cells per ml, and incubated with appropriate concentrations of the compounds to be tested. Two days later, XTT/PMS was added to test plates and the amount of formazan produced was quantified spectrophotometrically at 450/650 nm. The EC50 value was calculated as the concentration of compound that increased the percentage of formazan production in compound-treated, virus-infected cells to 50% of that produced by compound-free, mock-infected cells. The 50% cytotoxic dose (CC50) was calculated as the concentration of compound that decreased the percentage of formazan produced in compound-treated, mock-infected cells to 50% of that produced by compound-free, mock-infected cells. The therapeutic index (TI) was calculated by dividing the CC50 value by the EC50 value.
(§2) All strains of human rhinovirus (HRV) for use in this assay were purchased from American Type Culture Collection (ATCC), except for HRV serotype-14 (produced from the infectious cDNA clone constructed by Dr. Robert Rueckert, Institute for Molecular Virology, University of Wisconsin, Madison, Wis.). HRV stocks were propagated and viral assays were performed in H1-HeLa cells (ATCC). Cells were grown in minimal essential medium with 10% fetal bovine serum, available from Life Technologies (Gaithersburg, Md.).

[2] = Cytotoxicity in mock-infected cells of the antirhinoviral assay (XTT); format: cell-based; conditions: human, H1-HeLa cells, table line HRV-14
Protocol: as §1, §2

T1 sequence (P03303 1538-1719): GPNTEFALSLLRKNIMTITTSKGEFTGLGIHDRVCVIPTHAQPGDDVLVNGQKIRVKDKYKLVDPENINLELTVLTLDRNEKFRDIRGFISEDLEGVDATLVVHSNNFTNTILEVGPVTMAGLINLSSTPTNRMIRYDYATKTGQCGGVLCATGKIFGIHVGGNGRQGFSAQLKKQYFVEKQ

With CCOC(=O)/C=C/[C@H](CCC(N)=O)NC(=O)[C@H](CC(C)C)NC(=O)c1ccc(-c2ccccc2C(F)(F)F)[nH]1 [Compound 17, 6-Carbamoyl-4S-(4-methyl-2S-{[5-(2-trifluoromethyl-phenyl)-1H-pyrrole-2-carbonyl]-amino}-pentanoylamino)-hex-2(trans)-enoic acid ethyl ester] the kinact/KI [1] was 2900 M⁻¹ s⁻¹, the EC50 (HRV-14) was 2.19 µM and the CC50 at 2 days [2] was > 10 µM.
With CCOC(=O)/C=C/[C@H](CCC(N)=O)NC(=O)CNC(=O)c1ccc(-c2ccccc2C(F)(F)F)[nH]1 [Compound 20, 6-Carbamoyl-4S-(2S-{[5-(2-trifluoromethyl-phenyl)-1H-pyrrole-2-carbonyl]-amino}-acetylamino)-hex-2(trans)-enoic acid ethyl ester] the kinact/KI [1] was 330 M⁻¹ s⁻¹, the EC50 (HRV-14) was 16.4 µM and the CC50 at 2 days [2] was > 100 µM.
In the case of CCOC(=O)/C=C/[C@H](CCC(N)=O)NC(=O)[C@H](Cc1ccccc1)NC(=O)c1ccc(-c2cncc3ccccc23)[nH]1 [Compound 5, 6-Carbamoyl-4S-{2S-[(5-isoquinolin-4-yl-1H-pyrrole-2-carbonyl)-amino]-3-phenyl-propionylamino}-hex-2(trans)-enoic acid ethyl ester], the kinact/KI [1] is reported as 12700 M⁻¹ s⁻¹, the EC50 (HRV-14) is reported as 1.1 µM and the CC50 at 2 days [2] is reported as > 10 µM.
Molecule CCOC(=O)/C=C/[C@H](C[C@@H]1CCNC1=O)NC(=O)CCC(C)=O [Compound 43, 4S-(4-oxo-pentanoylamino)-5-(2-oxo-pyrrolidin-3S-yl)-pent-2-enoic acid ethyl ester] has a kinact/KI [1] of 85 M⁻¹ s⁻¹.
With O=C1OCC/C1=C\[C@H](C[C@@H]1CCNC1=O)NC(=O)[C@H](Cc1ccc(F)cc1)NC(=O)c1ccc(-c2ccccc2)[nH]1 [Compound 27, 5-Phenyl-1H-pyrrole-2-carboxylic acid-{2S-(4-fluorophenyl)-1S-[1-(2-oxo-dihydrofuran-3-ylidinemethyl)-1-(2-oxo-pyrrolidin-3S-methyl)-ethylcarbamoyl]-2S-phenyl-ethyl}-amide] the kinact/KI [1] was 11700 M⁻¹ s⁻¹, the EC50 (HRV-14) was 1.58 µM and the CC50 at 2 days [2] was > 10 µM.
For CCOC(=O)/C=C/[C@H](CCC(N)=O)NC(=O)[C@H](Cc1ccccc1)NC(=O)c1ccc(-c2cccc(Cl)c2Cl)[nH]1 [Compound 1], the kinact/KI [1] was 20300 M⁻¹ s⁻¹, the EC50 (HRV-14) was 0.202 µM and the CC50 at 2 days [2] was > 10 µM.
For CCOC(=O)/C=C/[C@H](CCC(N)=O)NC(=O)[C@H](Cc1ccccc1)NC(=O)c1ccc(-c2cccc3ccccc23)[nH]1 [Compound 3], the kinact/KI [1] was 30800 M⁻¹ s⁻¹, the EC50 (HRV-14) was 0.109 µM and the CC50 at 2 days [2] was > 10 µM.
With CCOC(=O)/C=C/[C@H](C[C@@H]1CCNC1=O)NC(=O)[C@@H](CC(=O)c1ccc(-c2ccccc2C(F)(F)F)[nH]1)Cc1ccccc1 [Compound 35, 4S-{2R-Benzyl-4-oxo-4-[5-(2-trifluoromethyl-phenyl)-1H-pyrrol-2-yl]-butyrylamino}-5-(2-oxo-pyrrolidin-3S-yl)-pent-2(trans)-enoic acid ethyl ester] the kinact/KI [1] was 125000 M⁻¹ s⁻¹, the EC50 (HRV-14) was 0.143 µM and the CC50 at 2 days [2] was > 10 µM.
O=C1OCC/C1=C\[C@H](C[C@@H]1CCNC1=O)NC(=O)[C@H](CC(=O)c1ccc(-c2cccc3ccccc23)[nH]1)Cc1ccc(F)cc1 [Compound 32, 2-(R,S)-(4-Fluorobenzyl)-4-(5-naphthalen-1-yl-1H-pyrrol-2-yl)-4-oxo-N-[2-(2-oxo-dihydro-furan-3-ylidine)-1S-(2-oxo-pyrrolidin-3S-ylmethyl)-ethyl]-butyramide] gave a kinact/KI [1] of 8300 M⁻¹ s⁻¹.
In the case of CCOC(=O)/C=C/[C@H](CCC(N)=O)NC(=O)[C@H](CC)NC(=O)c1ccc(-c2ccccc2C(F)(F)F)[nH]1 [Compound 23, 6-Carbamoyl-4S-(2S-{[5-(2-trifluoromethyl-phenyl)-1H-pyrrole-2-carbonyl]-amino}-butyrlamino)-hex-2(trans)-enoic acid ethyl ester], the kinact/KI [1] is reported as 3800 M⁻¹ s⁻¹, the EC50 (HRV-14) is reported as 1.55 µM and the CC50 at 2 days [2] is reported as > 10 µM.
Molecule CCOC(=O)/C=C/[C@H](CCC(N)=O)NC(=O)[C@H](Cc1ccccc1)NC(=O)c1ccc(-c2ccccc2)[nH]1 [Compound 10, 6-Carbamoyl-4S-{3-phenyl-2S-[(5-phenyl-1H-pyrrole-2-carbonyl)-amino]-propionylamino}-hex-2(trans)-enoic acid ethyl ester] has a kinact/KI [1] of 2370 M⁻¹ s⁻¹.
For CCOC(=O)/C=C/[C@H](CCC(N)=O)NC(=O)[C@H](Cc1ccccc1)NC(=O)c1ccc(-c2ccccc2C)[nH]1 [Compound 9, 6-Carbamoyl-4S-{3-phenyl-2S-[(5-o-tolyl-1H-pyrrole-2-carbonyl)-amino]-propionylamino}-hex-2(trans)-enoic acid ethyl ester], the kinact/KI [1] was 12600 M⁻¹ s⁻¹.
With CCOC(=O)/C=C/[C@H](C[C@@H]1CCNC1=O)NC(=O)[C@@H](CC(=O)c1ccc[nH]1)Cc1ccccc1 [Compound 30] the kinact/KI [1] was 2500 M⁻¹ s⁻¹, the EC50 (HRV-14) was 3.34 µM and the CC50 at 2 days [2] was > 10 µM.
For CCOC(=O)/C=C/[C@H](CCC(N)=O)NC(=O)[C@H](Cc1ccccc1)NC(=O)c1ccc(-c2ccncc2)[nH]1 [Compound 15, 6-Carbamoyl-4S-{3-phenyl-2S-[(5-pyridin-4-yl-1H-pyrrole-2-carbonyl)-amino]-propionylamino}-hex-2(trans)-enoic acid ethyl ester], the kinact/KI [1] was 980 M⁻¹ s⁻¹, the EC50 (HRV-14) was 27 µM and the CC50 at 2 days [2] was > 100 µM.
In the case of CCOC(=O)/C=C/[C@H](CCC(N)=O)NC(=O)[C@H](Cc1ccccc1)NC(=O)c1ccc(-c2cccc3c2OCO3)[nH]1 [Compound 12], the kinact/KI [1] is reported as 2700 M⁻¹ s⁻¹, the EC50 (HRV-14) is reported as 1.25 µM and the CC50 at 2 days [2] is reported as > 10 µM.
With O=C1OCC/C1=C\[C@H](C[C@@H]1CCNC1=O)NC(=O)C(CC(=O)c1ccc(-c2ccccc2)[nH]1)Cc1ccc(F)cc1 (stereo partly drawn) [Compound 31, 2-(R,S)-(4-Fluorobenzyl)-4-oxo-N-[2-(2-oxo-dihydro-furan-3-ylidine)-1S-(2-oxo-pyrrolidin-3S-ylmethyl)-ethyl]-4-(5-phenyl-1H-pyrrol-2-yl)-butyramide] the kinact/KI [1] was 900 M⁻¹ s⁻¹.
Work on CCOC(=O)/C=C/[C@H](CCC(N)=O)NC(=O)[C@H](Cc1ccccc1)NC(=O)c1ccc(-c2cc(Cl)ccc2OC)[nH]1 [Compound 4, 6-Carbamoyl-4S-(2S-{[5-(5-chloro-2-methoxy-phenyl)-1H-pyrrole-2-carbonyl]amino}-3-phenyl-propionylamino)-hex-2(trans)-enoic acid ethyl ester] yielded a kinact/KI [1] of 5860 M⁻¹ s⁻¹.
O=C1OCC/C1=C\[C@H](C[C@@H]1CCNC1=O)NC(=O)C(CC(=O)c1ccc[nH]1)Cc1ccc(F)cc1 (stereo partly drawn) [Compound 34, 2-(R,S)-(4-Fluorobenzyl)-4-oxo-N-[2-(2-oxo-dihydro-furan-3-ylidine)-1S-(2-oxo-pyrrolidin-3S-ylmethyl)-ethyl]-4-(1H-pyrrol-2-yl)-butyramide] gave a kinact/KI [1] of 520 M⁻¹ s⁻¹.
CCOC(=O)/C=C/[C@H](C[C@@H]1CCNC1=O)NC(=O)[C@H](Cc1ccc(F)cc1)NC(=O)c1cc2ccccc2[nH]1 [Compound 42, Ethyl-3-{(Indole-2-carboxylic acid)-L-(4-F-Phe)-L-[(S)-Pyrrol-Ala]}-E-Propenoate] gave a kinact/KI [1] of 42 M⁻¹ s⁻¹.
CCOC(=O)/C=C/[C@H](C[C@@H]1CCNC1=O)NC(=O)CCC(=O)c1ccccc1 [Compound 44, 4S-(4-oxo-4-phenyl-butyrylamino)-5-(2-oxo-pyrrolidin-3S-yl)-pent-2-enoic acid ethyl ester] showed a kinact/KI [1] of 1030 M⁻¹ s⁻¹.
Work on CCOC(=O)/C=C/[C@H](CCC(N)=O)NC(=O)[C@H](Cc1ccccc1)NC(=O)c1ccc(-c2cc(C)no2)[nH]1 [Compound 21, 6-Carbamoyl-4S-(2S-{[5-(3-methyl-isoxazol-5-yl)-1H-pyrrole-2-carbonyl]-amino}-3-phenyl-propionylamino)-hex-2(trans)-enoic acid ethyl ester] yielded a kinact/KI [1] of 1380 M⁻¹ s⁻¹.
CCOC(=O)/C=C/[C@H](C[C@@H]1CCNC1=O)NC(=O)CCC(=O)c1cccc2ccccc12 [Compound 45, 4-S-(4-Naphthalen-1-yl-4-oxo-butyrylamino)-5-(2-oxo-pyrrolidin-3S-yl)-pent-2-enoic acid ethyl ester] showed a kinact/KI [1] of 629 M⁻¹ s⁻¹.
